Assay results published in patent publication US7666454B2, “Cosmetic composition comprising an essential oil extracted from Helichrysum italicum” (L'Occitane, priority 2001, dated 2010).

System: human endothelial cells in co-culture (AngioKit)
Experiment: AngioKit in vitro angiogenesis model (tubule formation, CD31 staining, image analysis)
Assay type: cell-based
Experimental: The in vitro model we used was the AngioKit (Biopredic—ref ZHA-1000—lot no. 25173T) which approaches a more global vision of angiogenesis. In this model, human endothelial cells are seeded in a specific medium in co-culture with another type of human cells. In the initial phase, the endothelial cells form small islets. They begin to proliferate and then enter into a migration phase which leads to formation of structures of filamentous tubule form in the matrix. At the end of 10 to 12 days, the connections established form a network of anastomosed tubules. The staining of the tubules is obtained by specific marking of the antigen of surface antigen CD31 (PECAM-1), which is expressed by the endothelial cells.
The test is validated by staining the tubules and verification of the inhibitory and activating action of two pharmacological compounds known to act on angiogenesis. The action on angiogenesis of the active ingredients tested was evaluated by quantitative image analysis.
The cells were cultured in 24-well plates in an incubator at 37° C. under a humid atmosphere containing 5% CO2.
The specific culture medium was eliminated and the cells were placed under different experimental conditions:
Negative control: suramin, agent inhibiting formation of tubules—final concentration: 20 μM;
Positive control: VEGF, activating agent of angiogenesis—final concentration: 2 ng/ml;
Composition for the face: Since this composition of essential oils is not miscible in the culture medium, it was dissolved in absolute ethanol and tested at three concentrations (the non-cytotoxic character of which had been verified in advance by 24-hour contact with normal human fibroblasts): 0.005%-0.01%-0.05% (v/v); and
Solvent control: since ethanol could have effects on angiogenesis, it was tested at the final concentration required for dissolving the essential oils composition: 0.1% (v/v).
Each condition was implemented in duplicate. Microscopic observation of the cells was performed daily to monitor formation of tubules as shown in the photograph of FIG. 2.
The media were eliminated and the conditions were renewed on the 3rd, 6th and 9th day of the experiment. On the 10th day, the cells were fixed and stained: after rinsing in the PBS buffer, the cells were fixed in a 70% ethanol solution cooled at −20° C. for 30 minutes. The cells were then incubated for 1 hour at 37° C. with the human anti-CD-31 ZIS-3090 antibody (TCS CellWorks). […]
Evaluation of the angiogenic power of the compound tested was quantified by image analysis (Olympus IX70 Auto Analysis System) by measuring the length of the tubules developed (in μm) and the number of junctions established within the anastomosed network. […]

Compound	number of junctions augmented by a factor compared to the control (VEGF 2 ng/ml, day 10)	stimulator effect on the length of the tubular network compared to the control (VEGF 2 ng/ml, day 10) [%]	inhibition at 20 µM (Homo sapiens, Endothelial cell, 240 h, read-out: inhibition of the length of the tubular network compared to the control) [%]	number of junctions diminished by a factor compared to the control (suramin 20 μM, day 10)
VEGF	1.7	54		
Cc1ccc(C(=O)Nc2ccc(S(=O)(=O)O)c3cc(S(=O)(=O)O)cc(S(=O)(=O)O)c23)cc1NC(=O)c1cccc(NC(=O)Nc2cccc(C(=O)Nc3cc(C(=O)Nc4ccc(S(=O)(=O)O)c5cc(S(=O)(=O)O)cc(S(=O)(=O)O)c45)ccc3C)c2)c1 [suramin]			49	5.7
